Patent publication US5948437A, “Pharmaceutical compositions using thiazepine” (Zeneca Limited, priority 1997, dated 1999)
Structures can show the parent of a compound that is named as a salt.

Columns and labels:
[1] = compound and its pharmaceutically acceptable salts; cited from earlier work
physchem = conditions: water

OCCOCCN1CCN(C2=Nc3ccccc3Sc3ccccc32)CC1 [11-[4-[2-(2-hydroxyethoxy)ethyl]-1-piperazinyl]-dibenzo[b,f][1,4]thiazepine]
antidopaminergic activity [1]: exhibit useful antidopaminergic activity

OCCOCCN1CCN(C2=Nc3ccccc3Sc3ccccc32)CC1 [hemifumarate salt, 11-[4-[2-(2-hydroxyethoxy)ethyl]-1-piperazinyl]dibenzo[b,f][1,4]-thiazepine]
solubility thermodynamic (physchem): 3290 µg/mL
